Test results published in US6060481A, “Method for improving insulin sensitivity using an adenosine receptor antagonist” (priority 1999, dated 2000).

Experiments:
[1] = target: T1, human A2B adenosine receptor (Homo sapiens, UniProt P29275); test: Binding constants against cloned and expressed human adenosine receptor subtypes (A2B); settings: read-out: Binding constant (KD) A2B
T1 construct: expressed in transfected cells
T1 sequence (P29275 1-332): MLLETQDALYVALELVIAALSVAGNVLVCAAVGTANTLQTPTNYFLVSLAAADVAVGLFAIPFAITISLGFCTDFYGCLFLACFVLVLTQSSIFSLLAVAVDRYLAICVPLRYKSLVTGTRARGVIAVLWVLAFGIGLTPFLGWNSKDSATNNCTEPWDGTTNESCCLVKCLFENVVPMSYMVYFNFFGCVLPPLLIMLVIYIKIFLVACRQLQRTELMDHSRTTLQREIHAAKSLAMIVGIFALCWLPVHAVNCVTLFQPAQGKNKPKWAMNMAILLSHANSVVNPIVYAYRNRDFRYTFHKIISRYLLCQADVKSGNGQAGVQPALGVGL
Text: Any A2B adenosine receptor antagonist can be used according to the present methods. Methods for determining whether a compound is an A2B adenosine receptor agonist or antagonist involve quantitating its binding affinity to membranes which are known to contain the A2B subtype. The methods for determining whether compounds are specific ligands of different adenosine receptor subtypes will be known by practitioners of the art. […] References cited therein provide more complete descriptions of the procedures used.
In these previous methods, a radioactive compound (DPCPX) known to be highly specific for A1 adenosine receptors and whose KD is published was incubated with isolated fat cell membranes. A1 adenosine receptors are abundant in fat cells and DPCPX's binding to fat cell membranes occurs due to those receptors. […] Human cells which express large amounts of human A2B adenosine receptors are not readily available. Therefore, in order to determine the KD of BWA1433 for the A2B adenosine receptor the cDNA of human A2B adenosine receptor was used to overexpress the A2B adenosine receptor in a mammalian cell line.

rat A3 receptor = target: T2, rat A3 receptor (Rattus norvegicus, UniProt P28647); settings: rat versus human A3; cited from earlier work
T2 sequence (P28647 1-320): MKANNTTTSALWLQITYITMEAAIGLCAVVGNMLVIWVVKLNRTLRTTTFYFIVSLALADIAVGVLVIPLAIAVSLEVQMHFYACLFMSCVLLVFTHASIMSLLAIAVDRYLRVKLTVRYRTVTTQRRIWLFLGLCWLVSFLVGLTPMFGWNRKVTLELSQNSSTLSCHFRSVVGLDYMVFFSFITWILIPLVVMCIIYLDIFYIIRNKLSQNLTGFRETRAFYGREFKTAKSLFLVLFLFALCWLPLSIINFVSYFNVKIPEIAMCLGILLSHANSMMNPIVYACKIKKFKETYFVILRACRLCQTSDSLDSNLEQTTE

[2] = target: T3, human A1 adenosine receptor (Homo sapiens, UniProt P30542); test: Binding constants against cloned and expressed human adenosine receptor subtypes (A1); settings: read-out: Binding constant (KD) A1
T3 construct: expressed in transfected cells
T3 sequence (P30542 1-326): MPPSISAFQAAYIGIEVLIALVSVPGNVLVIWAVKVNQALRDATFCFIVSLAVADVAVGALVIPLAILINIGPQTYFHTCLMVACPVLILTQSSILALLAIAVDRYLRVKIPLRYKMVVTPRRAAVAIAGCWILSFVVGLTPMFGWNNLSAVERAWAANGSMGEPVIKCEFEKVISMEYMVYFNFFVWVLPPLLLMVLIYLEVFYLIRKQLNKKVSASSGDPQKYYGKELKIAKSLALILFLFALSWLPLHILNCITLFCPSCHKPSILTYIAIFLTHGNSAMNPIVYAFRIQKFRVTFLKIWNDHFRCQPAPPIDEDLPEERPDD

In the case of CCCn1c(=O)c2[nH]c(-c3ccc(C=CC(=O)O)cc3)nc2n(CCC)c1=O [BWA1433, 1,3-dipropyl-8-(p-acrylic)phenylxanthine], the Kd [1] is listed as 60 nM, the “KD of rat A3 receptor relative to human A3 receptor” value (rat A3 receptor) is listed as “much higher” and the Kd [2] is listed as 140 nM.
